Data from patent publication US7109240B2, “Non-hazardous pest control” (Ecosmart Technologies, Inc., priority 1993, dated 2006).

Assays:
German cockroaches [1] = assay: Knockdown of cockroaches continuously confined to calcium carbonate + 5% neurally effective substance; assay type: in vivo, Blattella, germanica; conditions: for insecticidal activity (in words): 5% (wt/wt) in calcium carbonate, or dust alone; for KT50 / KT90 / KT90, Hours: 5% (wt/wt) ingredient in calcium carbonate, or dust alone, 1.2 cc, 78 ± 4° F., 55 ± 6% rh
Description: (§1) Continuous exposure tests.—The intrinsic insecticidal activity of the insecticide dust against B. germanica was determined by exposing cockroaches to fresh and aged deposits of the dust. Replicated groups of three to ten adult cockroaches from culture were confined to deposits of the dust, and its speed of action in terms of knockdown (KD) and paralysis was determined. Adult male cockroaches from culture were placed directly onto fairly heavy deposits of dust (1 to 1.2 cc) spread evenly on filter paper in covered 9-cm-diameter petri dishes. The time for irreversible KD to occur (KT) was determined from periodic, irregular observation. The insects were considered KD when they were on their back, or could be turned over, and could not right themselves within at least two minutes. […] Comparison of KD activity was made with some commercial dust formulations including a non-fluorinated silica aerogel (SG-68), Drione™ (a fluorinated silica aerogel+pyrethrins), and a commercial diatomaceous earth (Celite™) applied and tested in the same manner.
(§2) The beads were screened out of the resultant mix. Exactly 1.2 cc of dust or dust was spread onto Whatman filter paper in 9-cm-diam petri dishes and the knockdown (KD) of cockroaches confined to the dust mix was determined by periodically observing KD.

German cockroaches [2] = conditions: choice box; repellency measure
Description: Choice box tests.—The activity and repellency of the present insecticide dust in a choice test was determined with standard two-compartment choice boxes.
Choice boxes are 30.5 cm square, 10 cm tall wooden boxes, with a tempered masonite floor. A vertical partition panel separates the box into two equal-sized compartments. A 1.3 cm hole at the top center of the partition panel allows cockroaches to move from one compartment to the other. Transparent sheet plexiglass (0.3 cm thick) taped to the top retains cockroaches in the box and allows observation of live and dead in each compartment. A piece of masonite keeps one compartment dark (dark compartment). […]
Five boxes were used for each treatment and the untreated control. […] Cockroaches prefer to aggregate in the dark, and they will normally readily move from the light compartment to the dark compartment of untreated choice boxes within a day or two. […] The number dead and alive in each compartment of each box was recorded every few days. […]
The mortality produced in choice boxes, and the position of cockroaches in relation to the treatment, provides a measure of the likely ultimate efficacy of a treatment when used under actual field conditions. […] On the other hand, slow-acting insecticides such as boric acid are effective in choice box tests because cockroaches readily walk on those deposits and are eventually killed by them.

German cockroaches [3] = assay: Phenol vs. terpineol in calcium carbonate: knockdown of cockroaches; assay type: in vivo, Blattella, germanica
Description: as §2
A further test was conducted to compare the effectiveness of phenol vs. terpineol as a neurally effective substance.

[4] = test system: adult male German cockroaches; assay: Control test: knockdown of cockroaches continuously confined to deposits of the solid dust components; assay type: in vivo, Blattella, germanica; conditions: continuously confined to dust deposit; 76° F., 55% relative humidity
Description: as §1
A control test was conducted using only the solid components of the embodiment.

[5] = 0.32 % (wt/wt) in calcium carbonate
[6] = 0.63 % (wt/wt) in calcium carbonate
[7] = 1.25 % (wt/wt) in calcium carbonate
[8] = 2.5 % (wt/wt) in calcium carbonate
[9] = 5.0 % (wt/wt) in calcium carbonate

In the case of `CCCCC/C(C=O)=C/c1ccccc1` [Amyl cinnamic aldehyde, 5%, Amyl cinnamic aldehyde], the “insecticidal activity (in words)” value (German cockroaches [1]) is reported as “much slower, about as active as diatomaceous earth”, the “KT50” value (German cockroaches [1]) is reported as 9.4 h and the “KT90” value (German cockroaches [1]) is reported as 15.5 h.
In the case of `CC(=O)OCc1ccccc1` [Benzyl acetate], the “insecticidal activity (in words)” value (German cockroaches [1]) is reported as “most active”, the “KT50” value (German cockroaches [1]) is reported as 0.7 h and the “KT90” value (German cockroaches [1]) is reported as 1.0 h. The “KT90, Hours” value (German cockroaches [1]; listed as benzyl acetate) was “about one hour or so”.
For `OB(O)O` [Boric acid, tech., Boric acid], the “% of live in light on day 1” value (German cockroaches [2]) was 13% and the “% of live in light on day 7” value (German cockroaches [2]) was 100%.
In the case of `O=C([O-])[O-].[Ca+2]` [Calcium carbonate (CaCO3), Calcium carbonate], the “insecticidal activity (in words)” value (German cockroaches [1]) is reported as “not insecticidal” and the “% KD at 24 h” value (German cockroaches [1]; dust alone) is reported as “(1.3% KD at 24 h)”.
With `CCOC(=O)c1ccccc1C(=O)OCC` [Diethyl phthalate] the “insecticidal activity (in words)” value (German cockroaches [1]) was “not insecticidal”.
In the case of `Oc1ccccc1` [Phenol], the “KT-50” value (German cockroaches [3]; [5]) is reported as 16.5 h, the “KT-90” value (German cockroaches [3]; [5]) is reported as 24.0 h and the “KT-50” value (German cockroaches [3]; [6]) is reported as 7.5 h. For the same molecule, the “KT-90” value (German cockroaches [3]; [6]) was 20.3 h, the “KT-50” value (German cockroaches [3]; [7]) was 0.4 h and the “KT-90” value (German cockroaches [3]; [7]) was 1.5 h. The “KT-50” value (German cockroaches [3]; [8]) was 0.2 h, the “KT-90” value (German cockroaches [3]; [8]) was 0.4 h and the “KT-50” value (German cockroaches [3]; [9]) was <0.1 h. The “KT-90” value (German cockroaches [3]; [9]) was 0.1 h and the “insecticidal activity (in words)” value (German cockroaches [3]; in CaCO3, every rate tested) was “more insecticidal than terpineol”.
For `OCCc1ccccc1` [Phenyl ethyl alcohol], the “insecticidal activity (in words)” value (German cockroaches [1]) was “most active”, the “KT50” value (German cockroaches [1]) was 0.7 h and the “KT90” value (German cockroaches [1]) was 1.0 h. For the same molecule, the “KT90, Hours” value (German cockroaches [1]; listed as phenyl ethyl alcohol) was “about one hour or so”.
In the case of `O=C([O-])O.[Na+]` [Sodium bicarbonate (NaHCO3), Sodium bicarbonate], the “KT50” value [4] is reported as 16.5 h, the “KT90” value [4] is reported as 20.9 h and the “KT50” value (German cockroaches [1]) is reported as 9.7 h. For the same molecule, the “KT90” value (German cockroaches [1]) was 16.0 h.
